Laboratory results taken from patent US8609836B2, “4-aryl-2-anilino-pyrimidines” (Janssen Pharmaceutica NV, priority 2008, dated 2013).

Key:
AuroraB (h) = AuroraB (h) (Homo sapiens, UniProt Q96GD4); experiment: Aurora-B human kinase inhibition, SPA; format: biochemical; settings: read-out: AuroraB pIC50 (converted)
How it was run: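 SPA with biotinylated peptide (3 μM) in 60 mM Hepes pH 7.5, Mg/Mn 3 mM each, 0.5 μM ATP plus [γ-33P]ATP, AuroraB at 0.5 μg/ml. The reaction runs 60 min at room temperature and is stopped with EDTA and streptavidin PVT beads. 33P-substrate is read by scintillation imaging.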

CDK1/CyclinB (h) = CDK1/CyclinB (h) (Homo sapiens, UniProt P06493); experiment: CDK1/CyclinB human kinase inhibition, Invitrogen's FRET assay (Z'lyte); format: biochemical; settings: read-out: CDK1 pIC50 (converted)
Chain of CDK1/CyclinB (h) (P06493 whole entry): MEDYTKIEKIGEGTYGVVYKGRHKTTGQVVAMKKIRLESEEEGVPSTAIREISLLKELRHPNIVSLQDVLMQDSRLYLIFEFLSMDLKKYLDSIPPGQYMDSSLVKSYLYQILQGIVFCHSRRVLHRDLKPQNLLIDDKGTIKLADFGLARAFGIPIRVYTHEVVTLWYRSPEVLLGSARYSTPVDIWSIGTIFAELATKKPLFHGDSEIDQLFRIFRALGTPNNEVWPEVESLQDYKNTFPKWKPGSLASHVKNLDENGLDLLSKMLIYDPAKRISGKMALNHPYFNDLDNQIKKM
Chain of CDK1/CyclinB (h) (P14635 whole entry partner): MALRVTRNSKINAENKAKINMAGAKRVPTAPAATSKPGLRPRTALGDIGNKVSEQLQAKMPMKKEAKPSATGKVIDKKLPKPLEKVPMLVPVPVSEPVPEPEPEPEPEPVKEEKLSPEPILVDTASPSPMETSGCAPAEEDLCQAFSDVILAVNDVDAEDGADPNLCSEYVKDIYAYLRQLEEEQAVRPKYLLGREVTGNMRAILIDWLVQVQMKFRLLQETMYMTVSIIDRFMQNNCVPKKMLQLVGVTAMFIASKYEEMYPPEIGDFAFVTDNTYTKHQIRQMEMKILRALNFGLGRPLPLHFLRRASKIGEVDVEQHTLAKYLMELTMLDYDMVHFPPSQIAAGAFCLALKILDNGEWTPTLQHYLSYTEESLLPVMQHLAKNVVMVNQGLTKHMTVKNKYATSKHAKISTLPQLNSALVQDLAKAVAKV
How it was run: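 Z'lyte FRET assay: human CDK1/CyclinB (0.2 μg/ml) with 2 μM Ser/Thr peptide 12 and 10 μM ATP in 50 mM Hepes pH 7.5, MgCl2, EGTA, Brij-35, 60 min at room temperature. Protease development 60 min, then emission ratio 460/538 nm read with excitation at 390 nm.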

CDK4/CyclinD1 (h) = CDK4/CyclinD1 (h) (Homo sapiens, UniProt P11802); experiment: CDK4/CyclinD1 human kinase inhibition, SPA with GST-pRb substrate; format: biochemical; settings: read-out: CDK4 pIC50 (converted)
Chain of CDK4/CyclinD1 (h) (P11802 whole entry): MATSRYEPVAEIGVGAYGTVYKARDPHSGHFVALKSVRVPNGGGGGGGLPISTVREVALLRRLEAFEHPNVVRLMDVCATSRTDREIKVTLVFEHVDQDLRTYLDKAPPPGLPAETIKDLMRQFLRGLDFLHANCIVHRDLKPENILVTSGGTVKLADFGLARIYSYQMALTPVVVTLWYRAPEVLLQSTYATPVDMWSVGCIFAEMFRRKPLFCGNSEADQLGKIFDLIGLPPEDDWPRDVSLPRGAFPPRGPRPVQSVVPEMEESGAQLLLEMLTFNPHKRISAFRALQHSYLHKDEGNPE
Chain of CDK4/CyclinD1 (h) (P24385 whole entry partner): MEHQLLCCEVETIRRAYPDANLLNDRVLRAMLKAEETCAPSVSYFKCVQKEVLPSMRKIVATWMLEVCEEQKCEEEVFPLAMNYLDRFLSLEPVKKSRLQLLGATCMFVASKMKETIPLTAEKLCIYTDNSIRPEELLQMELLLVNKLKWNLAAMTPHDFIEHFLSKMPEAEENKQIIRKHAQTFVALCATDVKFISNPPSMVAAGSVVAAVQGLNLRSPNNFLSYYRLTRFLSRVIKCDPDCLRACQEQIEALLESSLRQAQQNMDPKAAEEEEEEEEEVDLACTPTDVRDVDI
Protocol: The in vitro inhibition of a panel of kinases was assessed using either the scintillation proximity assay (SPA) as described by Cook, N. D. et al., Advances in Experimental Medicine and Biology (1991), 36; p. 525-528.
In the SPA technology the activity of the kinase of interest is measured using an appropriate biotinylated substrate that is incubated with the aforementioned kinase protein in the presence of (^33P) radiolabeled ATP. (^33P) Phosphorylation of the substrate is subsequently measured through binding of the phosphorylated substrate to streptavidine coated beads that are based on the scintillant poly(vinyl toluene) (PVT-Beads). The scintillation intensity is detected by imaging on Leadseeker.
All kinases are pre-diluted to a 10× working concentration prior to addition into the assay. The composition of the dilution buffer for each kinase is detailed below.
In a final reaction volume of 30 μl, CDK4/CyclinD1 (h) (2.5 μg/ml) is incubated with 50 mM Hepes pH 7.5, 8 mM NaF, 20 mM MgCl2, 1 mM DTT, 40 μg/ml of substrate GST-pRb, 2 nM [γ-^33P-ATP] (6.0 μCi/ml). After incubation of 60 minutes at room temperature, the reaction is stopped by addition of 40 μL of stop solution containing 8.7 mM EDTA, 0.17% Triton X-100, 25 mg/ml Glutathion SPA Beads (GE-healthcare). The plate is centrifuged and read for Scintillation topcount analyzer.

PLK2 (h) = PLK2 (h) (Homo sapiens, UniProt Q9NYY3); experiment: PLK2 human kinase inhibition, SPA; format: biochemical; settings: read-out: PLK2 pIC50 (converted)
Chain of PLK2 (h) (Q9NYY3 whole entry): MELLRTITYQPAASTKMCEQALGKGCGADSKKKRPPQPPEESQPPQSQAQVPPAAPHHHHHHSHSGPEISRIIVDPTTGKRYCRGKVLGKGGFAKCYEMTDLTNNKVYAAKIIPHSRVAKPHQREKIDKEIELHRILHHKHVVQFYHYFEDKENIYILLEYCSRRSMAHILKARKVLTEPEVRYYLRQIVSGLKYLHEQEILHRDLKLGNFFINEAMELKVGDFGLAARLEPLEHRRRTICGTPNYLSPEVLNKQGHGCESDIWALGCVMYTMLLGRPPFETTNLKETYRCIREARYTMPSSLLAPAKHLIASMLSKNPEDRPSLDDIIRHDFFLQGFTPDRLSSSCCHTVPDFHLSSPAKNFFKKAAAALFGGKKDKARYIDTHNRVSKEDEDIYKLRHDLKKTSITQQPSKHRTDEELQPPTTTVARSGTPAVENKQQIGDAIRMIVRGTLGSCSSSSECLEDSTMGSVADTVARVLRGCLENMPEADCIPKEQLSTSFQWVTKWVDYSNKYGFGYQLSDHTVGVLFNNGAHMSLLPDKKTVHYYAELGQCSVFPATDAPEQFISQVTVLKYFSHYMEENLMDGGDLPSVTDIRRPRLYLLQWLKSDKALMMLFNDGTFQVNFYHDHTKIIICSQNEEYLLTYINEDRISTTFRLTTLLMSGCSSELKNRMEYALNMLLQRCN
How it was run: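 SPA read on Leadseeker: PLK2 (30 μg/ml) with 2 μM biotinylated peptide, 0.1 μM ATP plus 2 nM [γ-33P]ATP in 50 mM Hepes pH 8.0, 2 mM MnCl2, 1 mM DTT. Reaction ran 20 min at room temperature, then EDTA stop and streptavidin PVT beads.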

PLK3 (h) = PLK3 (h) (Homo sapiens, UniProt Q9H4B4); experiment: PLK3 human kinase inhibition, SPA; format: biochemical; settings: read-out: PLK3 pIC50 (converted)
Chain of PLK3 (h) (Q9H4B4 whole entry): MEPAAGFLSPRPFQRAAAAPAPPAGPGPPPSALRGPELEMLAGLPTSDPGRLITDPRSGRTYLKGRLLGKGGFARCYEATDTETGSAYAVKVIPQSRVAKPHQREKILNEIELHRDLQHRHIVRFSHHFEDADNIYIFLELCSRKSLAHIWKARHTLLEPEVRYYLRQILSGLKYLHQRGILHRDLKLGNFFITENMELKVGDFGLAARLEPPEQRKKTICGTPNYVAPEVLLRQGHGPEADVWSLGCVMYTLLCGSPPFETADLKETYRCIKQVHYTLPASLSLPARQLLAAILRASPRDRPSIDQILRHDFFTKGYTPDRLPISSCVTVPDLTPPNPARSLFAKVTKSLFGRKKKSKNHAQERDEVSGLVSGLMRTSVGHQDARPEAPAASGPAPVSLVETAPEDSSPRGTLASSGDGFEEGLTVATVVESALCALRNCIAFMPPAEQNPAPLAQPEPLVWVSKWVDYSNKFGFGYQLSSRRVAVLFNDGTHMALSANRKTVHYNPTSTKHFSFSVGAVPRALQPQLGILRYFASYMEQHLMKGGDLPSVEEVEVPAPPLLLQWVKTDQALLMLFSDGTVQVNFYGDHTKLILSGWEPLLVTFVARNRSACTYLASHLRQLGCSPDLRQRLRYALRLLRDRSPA
How it was run: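 SPA: PLK3 (h) at 30 μg/ml with 2 μM biotinylated peptide, 0.1 μM ATP plus 2 nM [γ-33P]ATP in 50 mM Hepes pH 8.0, 2 mM MnCl2 and 1 mM DTT. Incubated 20 min at room temperature, then stopped with EDTA and streptavidin PVT beads. Scintillation imaged on Leadseeker.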

HCT-116 = experiment: Cellular proliferation assay (Alamar blue), HCT-116; format: cell-based; settings: Homo sapiens, 10% FCS, 72 hours with compound, Alamar blue 4 h
How it was run: (§1)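 24 h seeding without compound, 10% FCS, 37° C/5% CO2; 72 h compound; Alamar blue (resazurin 9 μg/ml, ferro-/ferricyanide 90 μM) 4 h HCT-116, 6 h U87-MG, 24 h A2780/MDA-MB-231; fluorescence 544/590 nm vs control cells.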

H1299 = experiment: Cellular proliferation assay (Alamar blue), H1299; format: cell-based; settings: Homo sapiens, NCI-H1299; 10% FCS; 72 hours with compound; Alamar blue 4 h
How it was run: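 This proliferation assay on NCI-H1299 cells used an initial 24-hour compound-free incubation after seeding, followed by 72 hours of compound treatment with 10% FCS serum at 37° C. and 5% (v/v) CO2. Viable cells were quantified by a 4 h Alamar blue incubation and fluorescent plate reading at 544 nm/590 nm, and effects were expressed relative to control cells.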

U87-MG = experiment: Cellular proliferation assay (Alamar blue), U87-MG; format: cell-based; settings: Homo sapiens, U-87 MG; 10% FCS; 72 hours with compound; Alamar blue 6 h; read-out: U87-MG (cellular proliferation assay, Table 4) (converted)
How it was run: as §1

A2780 = experiment: Cellular proliferation assay (Alamar blue), A2780; format: cell-based; settings: Homo sapiens, 10% FCS, 72 hours with compound, Alamar blue 24 h, read-out: A2780 (cellular proliferation assay, Table 4) (converted)
How it was run: as §1

MDA-MB-231 = experiment: Cellular proliferation assay (Alamar blue), MDA-MB-231; format: cell-based; settings: Homo sapiens, 10% FCS, 72 hours with compound, Alamar blue 24 h, read-out: MDA/MB231 (cellular proliferation assay, Table 4) (converted)
How it was run: as §1

Chain of AuroraB (h) (Q96GD4 whole entry): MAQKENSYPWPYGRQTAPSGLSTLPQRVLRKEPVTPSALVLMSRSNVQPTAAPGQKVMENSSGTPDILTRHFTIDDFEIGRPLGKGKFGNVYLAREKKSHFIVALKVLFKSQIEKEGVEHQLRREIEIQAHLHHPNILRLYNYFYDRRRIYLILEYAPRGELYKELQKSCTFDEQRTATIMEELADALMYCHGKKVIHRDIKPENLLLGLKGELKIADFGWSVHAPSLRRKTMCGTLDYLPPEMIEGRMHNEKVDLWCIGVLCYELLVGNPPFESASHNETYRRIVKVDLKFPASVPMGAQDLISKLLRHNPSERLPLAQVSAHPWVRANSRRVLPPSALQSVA

Compound | IC50 (AuroraB (h)) [µM] | IC50 (CDK1/CyclinB (h)) [µM] | IC50 (CDK4/CyclinD1 (h)) [µM] | IC50 (PLK2 (h)) [µM] | IC50 (PLK3 (h)) [µM] | IC50 (HCT-116) [µM] | IC50 (H1299) [µM] | IC50 (U87-MG) [µM] | IC50 (A2780) [µM] | IC50 (MDA-MB-231) [µM]
COc1ccc2cc1CN[C@@H](CO)C(=O)N(C)CCCN(C)c1ccc(cn1)-c1ccnc(n1)N2 [Compound 11] | > 10 | > 10 | > 10 | > 10 | > 10 | > 10 | > 10 | > 10 | > 10 | > 10
O=C1NCc2ccc(cc2)-c2ccnc(n2)Nc2ccc(N3CCOCC3)c(c2)CN2CCC1CC2 [Compound 12] | 2.29 | > 10 | 1.58 | > 10 | > 10 | 3.8 | 1.58 | 0.955 | 1.74 | 9.33
O=C1NCc2cc(ccc2N2CCOCC2)Nc2nccc(n2)-c2cccc(c2)CN2CCC[C@@H]12 [Compound 15] | 2.95 | > 10 | 4.47 | > 10 | > 10 | 8.32 | > 10 | 7.94 | 7.08 | > 10
COc1cc2cc(c1OC)CN1CCC[C@H]1C(=O)N(C)CCN(C)c1cc(ccn1)-c1ccnc(n1)N2 [Compound 17] | > 10 | 8.13 | > 10 | > 10 | > 10 | > 10 | > 10 | > 10 | > 10 | > 10
O=C1NCc2cccc(c2)-c2ccnc(n2)Nc2ccc(N3CCOCC3)c(c2)CN[C@H]1Cc1ccccc1 [Compound 18] | > 10 | > 10 | > 10 | > 10 | > 10 | 6.76 | > 10 | 6.76 | 9.33 | > 10
O=C1CN2CCN(CC2)Cc2cc(ccc2N2CCOCC2)Nc2nccc(n2)-c2cccc(c2)CN1 [Compound 20] | > 10 | > 10 | > 10 | > 10 | > 10 | > 10 | > 10 | > 10 | > 10 | > 3.02
COc1cc2cc(c1OC)CN1CCC[C@H]1C(=O)NCc1cccc(c1)-c1ccnc(n1)N2 [Compound 23] | > 10 | > 10 | > 10 | > 10 | > 10 | > 10 | > 10 | > 10 | > 10 | > 10
CN1CCN(C(=O)c2ccc3cc2CN2CCC[C@H]2C(=O)NCc2cccc(c2)-c2ccnc(n2)N3)CC1 [Compound 25] | > 10 | > 10 | > 10 | > 10 | > 10 | 3.72 | 3.31 | > 10 | 4.47 | > 10
O=C1NCc2cccc(c2)-c2ccnc(n2)Nc2ccc(C(=O)N3CCOCC3)c(c2)CN2CCC[C@@H]12 [Compound 26] | > 10 | > 10 | > 10 | > 10 | > 10 | 2.19 | 2.45 | > 10 | 4.17 | 8.13
O=C1NCc2cccc(c2)-c2ccnc(n2)Nc2ccc(N3CCOCC3)c(c2)CN2C[C@@H](O)C[C@@H]12 [Compound 27] | > 10 | 1.91 | 1.78 | > 10 | > 10 | 0.891 | 2.95 | 5.37 | 0.661 | 3.8
O=C1NCc2cccc(c2)-c2ccnc(n2)Nc2cc(cc(C(=O)N3CCOCC3)c2)CN2CCC[C@@H]12 [Compound 32] | > 10 | 0.55 | 3.31 | > 10 | > 10 | 5.13 | > 10 | > 10 | > 10 | > 10
CN1CCN(C(=O)c2cc3cc(c2)Nc2nccc(n2)-c2cccc(c2)CNC(=O)[C@@H]2CCCN2C3)CC1 [Compound 34] | > 10 | 1.23 | 8.71 | > 10 | > 10 | 5.89 | 6.17 | 8.71 | > 10 | > 10
CN(C)C(=O)c1cc2cc(c1)Nc1nccc(n1)-c1cccc(c1)CNC(=O)[C@@H]1CCCN1C2 [Compound 35] | > 10 | 0.288 | 1.35 | > 10 | > 10 | 1.32 | > 10 | 1.45 | 3.39 | > 10
O=C(NC1CCOCC1)c1cc2cc(c1)Nc1nccc(n1)-c1cccc(c1)CNC(=O)[C@@H]1CCCN1C2 [Compound 37] | 4.9 | 5.37 | > 10 | > 10 | > 10 | > 10 | > 10 | > 10 | > 10 | > 10
CN1CCC(NC(=O)c2cc3cc(c2)Nc2nccc(n2)-c2cccc(c2)CNC(=O)[C@@H]2CCCN2C3)CC1 [Compound 38] | > 10 | 1.66 | 3.47 | > 10 | > 3.02 | 1.23 | > 10 | 1 | 2.69 | 6.31
CN(C)CCNC(=O)c1cc2cc(c1)Nc1nccc(n1)-c1cccc(c1)CNC(=O)[C@@H]1CCCN1C2 [Compound 39] | > 10 | 1.45 | 1.12 | > 10 | > 10 | 1.23 | > 10 | 1.07 | 2.09 | 6.76
O=C1NCc2cc(ccc2N2CCOCC2)Nc2nccc(n2)-c2cccc(c2)CCN2CCC[C@@H]12 [Compound 43] | > 10 | 0.427 | 0.427 | > 10 | > 10 | 1.78 | > 10 | > 10 | 2.51 | 5.62
COCCNC(=O)c1cc2cc(c1)Nc1nccc(n1)-c1cccc(c1)CNC(=O)[C@@H]1CCCN1C2 [Compound 44] | > 10 | 0.427 | 3.63 | > 10 | > 10 | 1.82 | > 10 | 1.91 | 6.03 | > 10
